Data on 12 compounds can be found in patent US8664217B2, “Benzodiazepine compound and pharmaceutical composition” (Otsuka Pharmaceutical Co., Ltd., priority 2008, dated 2014).

pIC50: −log10 of the molar value. Structures can show the parent of a compound that is named as a salt.

The experiment addresses T1, human Kv1.5 channels (Homo sapiens, UniProt P22460).
T1 construct: Full-length human Kv1.5 cDNA was cloned from a human heart cDNA library; expressed in transfected cells; host or cells: CHO-K1
The experiment in a line: Measurement of human Kv1.5 channel current by whole-cell patch clamp method (human Kv1.5-expressing CHO-K1 cell line). It counts as cell-based. Conditions: human Kv1.5-expressing CHO-K1 cells, step end current at +40 mV, test compound 0.1, 1, 10 μM. As to the method: Pharmacological Test 1 (1) Production of Human Kv1.5-Expressing CHO-K1 Cell Lines
CHO-K1 cell lines stably expressing human Kv1.5 channels were prepared in the following manner.
Full-length human Kv1.5 cDNA was cloned from a human heart cDNA library (produced by Stratagene). The obtained human Kv1.5 sequence corresponds to the sequence described in FASEB J. 5, 331-337 (1991).
The obtained human Kv1.5 cDNA was inserted into a plasmid encoding a CMV promoter and a G418 resistance marker to produce a Kv1.5 expression vector. The human Kv1.5 expression vector was transfected into CHO-K1 cells by the lipofectamine method. After culturing the cells in an F-12 medium (produced by Invitrogen Corp.) containing 10% FBS (produced by Invitrogen Corp.) for 3 or 4 days, the medium was replaced with a FBS-containing F-12 medium that included 1,000 μg/ml of G418 (produced by Invitrogen Corp.), and single colonies were isolated. The amount of Kv1.5 channel expression in the single colonies was quantified at the mRNA level by RT-PCR and then quantified at the protein level by western blotting. Finally, the expressed current was analyzed by patch clamp method. Cell lines expressing a current of 200 pA or more per cell were selected as channel-expressing cell lines for activity measurement by patch clamp method.
(3) Measurement of Ion Channel Current by Patch Clamp Method (Human Kv1.5-Expressing CHO-K1 Cell Line)
An experiment was carried out using a patch clamp setup at room temperature (20 to 26° C.). A perfusion chamber having a diameter of 20 mm (flow rate: about 5 ml/min) was mounted on the stage of a phase-contrast inverted microscope (produced by Nikon Corporation) placed on a vibration isolated table. A poly-L-lysine (produced by Sigma)-coated coverslip (diameter: 15 mm, produced by Matsunami Glass Ind., Ltd.) on which human Kv1.5-expressing cells were cultured was placed in the perfusion chamber.
Depolarizing stimulation pulses were applied and ionic current was recorded by using a patch clamp amplifier (EPC-7 or EPC-7 PLUS, produced by HEKA) and a personal computer (manufactured by IBM Corp.) in which software for data acquisition and analysis of ion channel current (PULSE 8.77, produced by HEKA) was installed. The current was measured in the whole-cell configuration of the patch-clamp technique. The tip (resistance: 2 to 4 MΩ) of a borosilicate glass pipette (produced by Sutter Instrument Co.) was gently placed on the cell membrane by using a three-dimensional mechanical micromanipulator (produced by Shoshin EM Corporation). […] Subsequently, stronger suction was applied to break the cell membrane. The capacitative current derived from the cell membrane was corrected using a patch clamp amplifier. Subsequently, the series resistance (Rs) between the pipette and the interior of the cell was measured and corrected.
The composition of the extracellular solution used is shown below. Unless otherwise specified, these components were obtained from Wako Pure Chemical Industries, Ltd.
Each test compound was prepared as a 1000-fold concentrated stock solution that was dissolved in DMSO and then diluted in the extracellular solution.
The composition of the electrode internal solution used is shown below. Unless otherwise specified, these components were obtained from Wako Pure Chemical Industries, Ltd.
(5) Measurement of Human Kv1.5 Current
While the membrane potential was bolded at −80 mV, depolarizing pulses (−80 mV for 0.05 seconds→+40 mV for 0.2 seconds →−40 mV for 0.2 seconds→−80 mV for 0.05 seconds) were applied at a stimulation frequency of 1 Hz to measure Kv1.5 channel current. More specifically, first, while perfusing an extracellular solution containing 0.1% DMSO and holding the membrane potential at −80 mV, depolarizing pulses were applied. The current obtained during the pulse application was recorded as a current in the absence of the test compounds. […]
(In general: The patch-clamp technique gives a direct electrical read-out from membranes.)

T1 sequence (P22460 whole entry): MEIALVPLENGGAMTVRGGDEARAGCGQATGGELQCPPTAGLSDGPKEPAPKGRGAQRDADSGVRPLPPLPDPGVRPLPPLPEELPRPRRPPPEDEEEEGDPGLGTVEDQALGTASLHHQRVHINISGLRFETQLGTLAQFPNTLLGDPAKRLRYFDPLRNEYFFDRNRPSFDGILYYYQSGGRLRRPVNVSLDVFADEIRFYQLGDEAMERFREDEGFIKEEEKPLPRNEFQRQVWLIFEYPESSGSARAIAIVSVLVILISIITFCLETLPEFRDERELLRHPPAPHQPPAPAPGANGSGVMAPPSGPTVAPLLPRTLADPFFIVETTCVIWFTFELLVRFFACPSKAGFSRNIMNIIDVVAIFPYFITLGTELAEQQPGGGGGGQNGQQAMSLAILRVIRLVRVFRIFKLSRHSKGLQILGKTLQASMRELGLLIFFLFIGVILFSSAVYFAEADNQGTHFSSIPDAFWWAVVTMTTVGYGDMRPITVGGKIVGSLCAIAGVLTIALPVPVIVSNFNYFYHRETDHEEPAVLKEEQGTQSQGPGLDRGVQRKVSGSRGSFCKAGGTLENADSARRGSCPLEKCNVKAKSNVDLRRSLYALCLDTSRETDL

For orientation: pIC50 means the IC50 on a negative log10 scale, so that one unit is a factor of ten. Lower therefore signals a large IC50. The compound `CCN1C(=O)C(C)(C)C(=O)N(C)c2cc(OCCCN(CCc3cccnc3)Cc3ccncc3C)ccc21` [Example 54, 1-ethyl-3,3,5-trimethyl-7-{3-[(3-methylpyridin-4-ylmethyl)-(2-pyridin-3-ylethyl)amino]propoxy}-1,5-dihydrobenzo[b][1,4]diazepine-2,4-dione trihydrochloride] gave a pIC50 of 6.55.

`CCN1C(=O)C(C)(C)C(=O)N(C)c2cc(OCCCN(CCn3ccc4ccccc4c3=O)Cc3ccc(C#N)cc3)ccc21` [Example 85] gave a pIC50 of 6.82.

`CCN1C(=O)C(C)(C)C(=O)N(C)c2cc(OCCCN(CCc3cccnc3)Cc3cccc(C#N)c3)ccc21` [Example 229] gave a pIC50 of 6.80.

`CCN1C(=O)C(C)(C)C(=O)N(C)c2cc(OCCCN(CCc3cccnc3)Cc3ccccc3)ccc21` [Example 200]: the negative-log IC50 (pIC50) was 6.54.

Take `CCN1C(=O)C(C)(C)C(=O)N(C)c2cc(OCCCN(CCn3ccc4occc4c3=O)Cc3ccc(C)nc3C)ccc21` [Example 629, 7-(3-{(2,6-dimethylpyridin-3-ylmethyl)-[2-(4-oxo-4H-furo[3,2-c]pyridin-5-yl)ethyl]amino}propoxy)-1-ethyl-3,3,5-trimethyl-1,5-dihydrobenzo[b][1,4]diazepine-2,4-dione dihydrochloride]: the pIC50 was 6.12.

For the compound `CCN1C(=O)C(C)(C)C(=O)N(C)c2cc(OCCCN(CCn3ccc4sccc4c3=O)Cc3cccnc3C)ccc21` [Example 595, 1-ethyl-3,3,5-trimethyl-7-(3-{(2-methylpyridin-3-ylmethyl)-[2-(4-oxo-4H-thieno[3,2-c]pyridin-5-yl)ethyl]-amino}propoxy)-1,5-dihydrobenzo[b][1,4]diazepine-2,4-dione], the pIC50 is 6.30.

Compound `CCN1C(=O)C(C)(C)C(=O)N(C)c2cc(OCCCN(CCc3cccnc3)Cc3ccncc3)ccc21` [Example 8, 1-ethyl-3,3,5-trimethyl-7-{3-[(2-pyridin-3-ylethyl)pyridin-4-ylmethylamino]propoxy}-1,5-dihydrobenzo[b][1,4]diazepine-2,4-dione trihydrochloride] gave a negative-log IC50 (pIC50) of 6.40.

The compound `CCN1C(=O)C(C)(C)C(=O)N(C)c2cc(OCCCN(CCn3ccc4ccccc4c3=O)S(=O)(=O)c3ccccc3)ccc21` [Example 634, N-[3-(1-ethyl-3,3,5-trimethyl-2,4-dioxo-2,3,4,5-tetrahydro-1H-benzo[b][1,4]diazepin-7-yloxy)propyl]-N-[2-(1-oxo-1H-isoquinolin-2-yl)ethyl]benzenesulfonamide] gave a negative logarithm of the IC50 (pIC50) of 6.44.

`CCN1C(=O)C(C)(C)C(=O)N(C)c2cc(OCCCN(CCn3ccc4oc(C)cc4c3=O)Cc3cnccc3C)ccc21` [Example 573, 1-ethyl-3,3,5-trimethyl-7-{3-[[2-(2-methyl-4-oxo-4H-furo[3,2-c]pyridin-5-yl)ethyl]-(4-methylpyridin-3-ylmethyl)amino]propoxy}-1,5-dihydrobenzo[b][1,4]diazepine-2,4-dione]: the pIC50 is 6.48.

For the compound `CN(CCN(CCCOc1ccc2c(c1)N(C)C(=O)C(C)(C)C(=O)N2C)Cc1ccncc1)C(=O)c1ccccc1` [Example 45, N-methyl-N-(2-{pyridin-4-ylmethyl-[3-(1,3,3,5-tetramethyl-2,4-dioxo-2,3,4,5-tetrahydro-1H-benzo[b][1,4]diazepin-7-yloxy)propyl]amino}ethyl)benzamide dihydrochloride], the pIC50 was 6.16.

For `CN1C(=O)C(C)(C)C(=O)N(C)c2cc(OCCCN(CCc3cccnc3)Cc3ccncc3)ccc21` [Example 19, 1,3,3,5-tetramethyl-7-{3-[(2-pyridin-3-ylethyl)pyridin-4-ylmethylamino]propoxy}-1,5-dihydrobenzo[b][1,4]diazepine-2,4-dione trihydrochloride], the pIC50 was 6.27.

The compound `Cc1ccccc1CN(CCCOc1ccc2c(c1)N(C)C(=O)C(C)(C)C(=O)N2C)CCc1cccnc1` [Example 50, 1,3,3,5-tetramethyl-7-{3-[(2-methylbenzyl)-(2-pyridin-3-ylethyl)amino]propoxy}-1,5-dihydrobenzo[b][1,4]diazepine-2,4-dione dihydrochloride] had a pIC50 of 6.60.
